Measured values published in patent US10722520B2, “Heterocyclic compounds and their use in preventing or treating bacterial infections” (MUTABILIS, priority 2016, dated 2020).

What was measured:
Format in all cases: cell-based
E. cloacae 260508 [1] = assay: MIC of ceftazidime (CAZ) at fixed concentration of compound (synergy), broth microdilution; details: strain 260508 (E. cloacae)
Summary of the method: (§1)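 Log-phase bacteria were diluted to a final 5×10^5 cfu/mL in cation-adjusted Mueller-Hinton broth and incubated 16-20 h at 35° C in ambient air. MIC was taken as the lowest concentration preventing growth, judged visually.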

K. pneumoniae 160143 = assay: as above; details: strain 160143 (K. pneumoniae)
Summary of the method: as §1

E. coli UFR39 = assay: as above; details: strain UFR39 (E. coli)
Summary of the method: as §1

E. coli 131119 = assay: as above; details: strain 131119 (E. coli)
Summary of the method: as §1

K. pneumoniae 6299 = assay: as above; details: strain 6299 (K. pneumoniae)
Summary of the method: as §1

E. cloacae UFR51 [2] = assay: as above; details: strain UFR51 (E. cloacae)
Summary of the method: as §1

K. pneumoniae UFR68 [3] = assay: as above; details: strain UFR68 (K. pneumoniae)
Summary of the method: as §1

E. cloacae UFR70 = assay: as above; details: strain UFR70 (E. cloacae)
Summary of the method: as §1

K. pneumoniae UFR77 = assay: as above; details: strain UFR77 (K. pneumoniae)
Summary of the method: as §1

E. cloacae UFR85 = assay: as above; details: strain UFR85 (E. cloacae)
Summary of the method: as §1

E. coli UFR74 = assay: as above; details: strain UFR74 (E. coli)
Summary of the method: as §1

K. pneumoniae UFR24 [4] = assay: as above; details: strain UFR24 (K. pneumoniae)
Summary of the method: as §1

K. oxytoca UFR21 = assay: as above; details: strain UFR21 (K. oxytoca)
Summary of the method: as §1

E. coli UFR32 = assay: as above; details: strain UFR32 (E. coli)
Summary of the method: as §1

E. coli RGN238 = assay: as above; details: strain RGN238 (E. coli)
Summary of the method: as §1

K. pneumoniae 200047 = assay: as above; details: strain 200047 (K. pneumoniae)
Summary of the method: as §1

E. cloacae P99 [5] = assay: as above; details: strain P99 (E. cloacae)
Summary of the method: as §1

K. pneumoniae BAA-1898 [6] = assay: as above; details: strain BAA-1898 (K. pneumoniae)
Summary of the method: as §1

E. coli UFR18 = assay: as above; details: strain UFR18 (E. coli)
Summary of the method: as §1

E. coli 190317 = assay: as above; details: strain 190317 (E. coli)
Summary of the method: as §1

E. coli UFR61O = assay: as above; details: strain UFR61O (E. coli)
Summary of the method: as §1

P. aeruginosa CIP107051 = assay: as above; details: strain CIP107051 (P. aeruginosa)
Summary of the method: as §1

E. coli UFR41 = assay: as above; details: strain UFR41 (E. coli)
Summary of the method: as §1

E. cloacae 260508 [7] = assay: MIC of compound alone, broth microdilution; details: Enterobacter cloacae; strain 260508: E. cloacae; TEM-1, CTX-M-15; read-out: MIC compounds of the invention alone
Summary of the method: as §1

E. cloacae UFR51 [8] = assay: MIC of compound alone, broth microdilution; details: Enterobacter cloacae; strain UFR51: E. cloacae; SHV-12, IMP-8; read-out: MIC compounds of the invention alone
Summary of the method: as §1

K. pneumoniae UFR68 [9] = assay: MIC of compound alone, broth microdilution; details: Klebsiella pneumoniae; strain UFR68: K. pneumoniae; TEM-1, SHV-11, CTX-M-15, KPC-3; read-out: MIC compounds of the invention alone
Summary of the method: as §1

K. pneumoniae UFR24 [10] = assay: MIC of compound alone, broth microdilution; details: Klebsiella pneumoniae; strain UFR24: K. pneumoniae; TEM-1, SHV-2, SHV-11, OXA-1, OXA-48, OXA-47; read-out: MIC compounds of the invention alone
Summary of the method: as §1

E. cloacae P99 [11] = assay: MIC of compound alone, broth microdilution; details: Enterobacter cloacae; strain P99: E. cloacae; AmpC; read-out: MIC compounds of the invention alone
Summary of the method: as §1

K. pneumoniae BAA-1898 [12] = assay: MIC of compound alone, broth microdilution; details: Klebsiella pneumoniae, BAA1898; strain BAA-1898: K. pneumoniae; TEM-1, SHV-11, SHV-12, KPC-2; read-out: MIC compounds of the invention alone
Summary of the method: as §1

[13] = footnote *: MIC of ceftazidime with compound fixed at 8 μg/mL
[14] = MIC of ceftazidime with compound fixed at 4 μg/mL

In the case of O=C1N2CC(n3cncn3)=CC(C2)N1OS(=O)(=O)[O-].[Na+] (stereo not shown) [Example 5, sodium [7-oxo-3-(1,2,4-triazol-1-yl)-1,6-diazabicyclo[3.2.1]oct-3-en-6-yl]sulfate], the “MIC combination of CAZ and compound at 8 μg/mL” value (shortened to “MIC combination … at 8 μg/mL”) (E. cloacae 260508 [1]; [13]) is reported as less than 0.25, the “MIC combination … at 8 μg/mL” value (K. pneumoniae 160143; [13]) is reported as less than 0.25 and the “MIC combination … at 8 μg/mL” value (E. coli UFR39; [13]) is reported as less than 0.25. For the same molecule, the “MIC combination … at 8 μg/mL” value (E. coli 131119; [13]) was less than 0.25, the “MIC combination … at 8 μg/mL” value (K. pneumoniae 6299; [13]) was less than 0.25 and the “MIC combination … at 8 μg/mL” value (E. cloacae UFR51 [2]; [13]) was less than 0.25. For the same molecule, the “MIC combination … at 8 μg/mL” value (K. pneumoniae UFR68 [3]; [13]) was less than 0.25, the “MIC combination … at 8 μg/mL” value (E. cloacae UFR70; [13]) was less than 0.25 and the “MIC combination … at 8 μg/mL” value (K. pneumoniae UFR77; [13]) was less than 0.25. For the same molecule, the “MIC combination … at 8 μg/mL” value (E. cloacae UFR85; [13]) was less than 0.25, the “MIC combination … at 8 μg/mL” value (E. coli UFR74; [13]) was less than 0.25 and the “MIC combination … at 8 μg/mL” value (K. pneumoniae UFR24 [4]; [13]) was less than 0.25. For the same molecule, the “MIC combination … at 8 μg/mL” value (K. oxytoca UFR21; [13]) was less than 0.25, the “MIC combination … at 8 μg/mL” value (E. coli UFR32; [13]) was less than 0.25 and the “MIC combination … at 8 μg/mL” value (E. coli RGN238; [13]) was less than 0.25. For the same molecule, the “MIC combination … at 8 μg/mL” value (K. pneumoniae 200047; [13]) was less than 0.25, the “MIC combination … at 8 μg/mL” value (E. cloacae P99 [5]; [13]) was less than 0.25 and the “MIC combination … at 8 μg/mL” value (K. pneumoniae BAA-1898 [6]; [13]) was less than 0.25. The “MIC combination … at 8 μg/mL” value (E. coli UFR18; [13]) was less than 0.25, the “MIC combination … at 8 μg/mL” value (E. coli 190317; [13]) was less than 0.25 and the “MIC combination … at 8 μg/mL” value (E. coli UFR61O; [13]) was less than 0.25. For the same molecule, the “MIC combination … at 8 μg/mL” value (P. aeruginosa CIP107051; [13]) was 4, the “MIC combination … at 8 μg/mL” value (E. coli UFR41; [13]) was less than 0.25 and the MIC (E. cloacae 260508 [7]) was 4 µg/mL. It also gave an MIC (E. cloacae UFR51 [8]) of 4 µg/mL, an MIC (K. pneumoniae UFR68 [9]) of 4 µg/mL and an MIC (K. pneumoniae UFR24 [10]) of 2 µg/mL. It also gave an MIC (E. cloacae P99 [11]) of 4 µg/mL and an MIC (K. pneumoniae BAA-1898 [12]) of 4 µg/mL.

In the case of O=C1N2CC(n3ccsc3=O)=CC(C2)N1OS(=O)(=O)[O-].[Na+] (stereo not shown) [Example 1, Sodium [7-oxo-3-(2-oxo-thiazol-3-yl)-1,6-diaza-bicyclo[3.2.1]oct-3-en-6-yl]sulfate], the “MIC combination of CAZ and compounds of the invention at 4 μg/mL” value (from here on “MIC combination … at 4 μg/mL”) (E. cloacae 260508 [1]; [14]) is reported as less than 0.25, the “MIC combination … at 4 μg/mL” value (K. pneumoniae 160143; [14]) is reported as no more than 0.25 and the “MIC combination … at 4 μg/mL” value (E. coli UFR39; [14]) is reported as less than 0.25. The “MIC combination … at 4 μg/mL” value (E. coli 131119; [14]) was less than 0.25, the “MIC combination … at 4 μg/mL” value (K. pneumoniae 6299; [14]) was no more than 0.25 and the “MIC combination … at 4 μg/mL” value (E. cloacae UFR51 [2]; [14]) was less than 0.25. The “MIC combination … at 4 μg/mL” value (K. pneumoniae UFR68 [3]; [14]) was less than 0.25, the “MIC combination … at 4 μg/mL” value (E. cloacae UFR70; [14]) was no more than 0.25 and the “MIC combination … at 4 μg/mL” value (K. pneumoniae UFR77; [14]) was no more than 0.25. For the same molecule, the “MIC combination … at 4 μg/mL” value (E. cloacae UFR85; [14]) was less than 0.25, the “MIC combination … at 4 μg/mL” value (E. coli UFR74; [14]) was no more than 0.25 and the “MIC combination … at 4 μg/mL” value (K. pneumoniae UFR24 [4]; [14]) was 0.5. For the same molecule, the “MIC combination … at 4 μg/mL” value (K. oxytoca UFR21; [14]) was 0.5, the “MIC combination … at 4 μg/mL” value (E. coli UFR32; [14]) was less than 0.25 and the “MIC combination … at 4 μg/mL” value (E. coli RGN238; [14]) was less than 0.25. For the same molecule, the “MIC combination … at 4 μg/mL” value (K. pneumoniae 200047; [14]) was no more than 0.25, the “MIC combination … at 4 μg/mL” value (E. cloacae P99 [5]; [14]) was less than 0.25 and the “MIC combination … at 4 μg/mL” value (K. pneumoniae BAA-1898 [6]; [14]) was no more than 0.25. The “MIC combination … at 4 μg/mL” value (E. coli UFR18; [14]) was less than 0.25, the “MIC combination … at 4 μg/mL” value (E. coli 190317; [14]) was less than 0.25 and the “MIC combination … at 4 μg/mL” value (E. coli UFR61O; [14]) was no more than 0.25. For the same molecule, the “MIC combination … at 4 μg/mL” value (P. aeruginosa CIP107051; [14]) was 8, the “MIC combination … at 4 μg/mL” value (E. coli UFR41; [14]) was 0.5 and the MIC (E. cloacae 260508 [7]) was 4 µg/mL. It also gave an MIC (E. cloacae UFR51 [8]) of 4 µg/mL, an MIC (K. pneumoniae UFR68 [9]) of 8 µg/mL and an MIC (K. pneumoniae UFR24 [10]) of 16 µg/mL. For the same molecule, the MIC (E. cloacae P99 [11]) was 4 µg/mL and the MIC (K. pneumoniae BAA-1898 [12]) was 8 µg/mL.
